Results from patent US8343760B2, “p53 activator peptides” (University of Maryland, Baltimore, priority 2008, dated 2013).
Where a SMILES comes first, the peptide text is derived from it. Bridges are numbered along the chain shown (N, C = ends).

Legend:
[1] = test system: p53 mutated SW480 cells; test: Tumor cell killing, MTS OD and Trypan blue cell count, SW480; details: SW480, added daily for three days
Protocol: (§1) Nutlin-3, a known small molecule inhibitor of the p53-MDM2 interaction, was given at 10 μg/ml as a positive control. Briefly, HCT116 cells (10,000/well) were plated overnight in McCoy's 5A modified medium (1×) supplemented with 1% pen-strep and 10% heat inactivated FBS. SW480 cells (10,000/well) were plated overnight in DMEM 1× medium, 1% pen-strep and 10% heat inactivated FBS (all reagents were from GIBCO). Cells were treated the next day with the indicated compound and then OD and cell count assessed after 3 days (left column) or peptides were added every day for three day and then OD and cell count were assessed (right column). OD was measured with the MTS kit (Cell titer 96 aqueous non-radioactive cell proliferation assay, Promega). Trypan blue incorporation was used to determine number of cells alive and dead.

[2] = test system: p53 wild type HCT116 cells; test: Tumor cell killing, MTS OD and Trypan blue cell count, HCT116; details: for reduction in HCT116 cell count: HCT116, added daily for three days; for reduction in cell viability as measured by MTS OD / reduction in cell number (Trypan blue cell count): HCT116, single dose, peptides 100 μg/ml, Nutlin-3 10 μg/ml; for reduction in cell viability as measured by MTS OD: after 3 days; for reduction in cell number (Trypan blue cell count): assessed after 3 days
Protocol: as §1

[3] = target: T1, synMDMX (synthetic MDMX, amino acids 24-108 of the full length MDMX protein) (Homo sapiens, UniProt O15151); test: SPR-based competition binding assay, synMDMX vs immobilized 15-29p53; details: stoppin-1 relative to 15-29p53
T1 construct: synthetic MDMX—comprising amino acids 24-108 of the full length MDMX protein; made in house; host or cells: chemical synthesis (no expression host)
T1 sequence (O15151 24-108): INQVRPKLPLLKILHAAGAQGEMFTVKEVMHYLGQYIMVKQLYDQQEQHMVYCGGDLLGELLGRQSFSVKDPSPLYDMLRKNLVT
Protocol: Each curve is the mean of four independent measurements at 25° C. in 10 mM HEPES, 150 mM NaCl, 0.005% surfactant P20, pH 7.4. […] Specifically, ^(15-29)p53 was immobilized on a CM5 sensor chip for kinectic analysis of a fixed concentration of ^synMDM2 (50 nM) or ^synMDMX (100 nM) pre-incubated with varying concentrations of stoppin-1 at room temperature. ^(15-29)p53 was used as a control in the competition binding assay. […] To facilitate comparison, several other compounds were included in the panel: ^(15-29)p53, ^(17-28)p53, and Nutlin-3 (a racemic mixture of Nutlin-3a and Nutlin-3b).

[4] = target: T2, synMDM2 (Homo sapiens, UniProt Q00987); test: Trp fluorescence spectroscopy on addition of synMDM2; type: binding
T2 construct: synthetic MDM2—comprising amino acids 25-109 of the full length MDM2 protein; made in house; host or cells: chemical synthesis (no expression host)
T2 sequence (Q00987 25-109): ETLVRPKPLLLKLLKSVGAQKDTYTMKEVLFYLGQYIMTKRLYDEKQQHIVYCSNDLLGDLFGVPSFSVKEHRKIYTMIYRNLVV
Excerpt: Stoppin-1 was characterized using CD and fluorescence spectroscopy. […] The CD results are entirely consistent with the known structural features of BmBKTx1. As is the case with ^(15-29)p53, the only Trp residue engineered into stoppin-1 is fully solvent exposed in aqueous solution (buffer) as evidenced by the Trp fluorescence maximum (356 nm).
Stoppin-1 was derivatived by making five additional substitutions in its C-terminal region, resulting in a heavily cationic new peptide termed stoppin-2 of the following amino acid sequence: […] (SEQ ID NO:2). Specifically, Ser^18, Ser^19, Ile^23, Asn^24, and Ser^25 (BmBKTx1 numbering) were replaced with Arg, generating a miniprotein with eight cationic residues (including three existing Lys residues) clustered in the C-terminal β-hairpin region. Stoppin-2 was then chemically synthesized and oxidatively folded using procedures previously described herein. The correct folding of stoppin-2 was verified by disulfide mapping using trypsin/CNBr fragmentation coupled with LC-MS analysis. The interaction of stoppin-2 with MDM2/MDMX was characterized using fluorescence spectroscopy.

Compound: COc1ccc(C2=N[C@@H](c3ccc(Cl)cc3)[C@@H](c3ccc(Cl)cc3)N2C(=O)N2CCNC(=O)C2)c(OC(C)C)c1 [Nutlin-3, reference compound]
- effect against SW480 [1]: ineffective
- reduction in HCT116 cell count [2]: ~90%
- reduction in cell viability as measured by MTS OD [2]: reduction in HTC cell viability
- reduction in cell number (Trypan blue cell count) [2]: over 80%

Compound: CC[C@H](C)[C@@H]1NC(=O)[C@@H]2CSSC[C@H](N)C(=O)N[C@@H](Cc3ccc(O)cc3)C(=O)N[C@@H](CO)C(=O)N[C@@H](Cc3ccccc3)C(=O)N[C@@H](CC(=O)O)C(=O)N[C@H]3CSSC[C@H](NC(=O)[C@H](CCCCN)NC(=O)[C@H](CO)NC(=O)[C@H](CC(N)=O)NC1=O)C(=O)N[C@@H](CCCCN)C(=O)N[C@H](C(=O)O)CSSC[C@H](NC(=O)[C@H](CCCCN)NC(=O)[C@H](Cc1c[nH]c4ccccc14)NC(=O)[C@H](CC(C)C)NC3=O)C(=O)N[C@@H](CC(C)C)C(=O)N[C@@H](C)C(=O)N[C@@H](CCSC)C(=O)NCC(=O)N[C@@H](Cc1ccccc1)C(=O)N[C@@H](CO)C(=O)N[C@@H](CO)C(=O)NCC(=O)N[C@@H](CCCCN)C(=O)N2 [stoppin-1] (H-CYSFDCLWKCLAMGFSSGKCINSKCKC-OH; disulfide 1-20, 6-25, 10-27)
- fold lower binding affinity for synMDMX than 15-29p53 [3]: approximately 4 fold
- effect against SW480 [1]: ineffective
- reduction in cell number (Trypan blue cell count) [2]: minimal
- shift of Trp fluorescence maximum on addition of synMDM2 (from-to) [4]: 356 nm to 328 nm
- shift of Trp fluorescence on addition of synMDM2 ([4]; from 356 nm to 328 nm): 28 nm

Compound: CYSFDCLWKCLAMGFRRGKCRRRKCKC [stoppin-2, heavily cationic derivative of stoppin-1 with five Arg substitutions]
- effect against SW480 [1]: ineffective
- reduction in HCT116 cell count [2]: killed the cells quantitatively
- reduction in cell viability as measured by MTS OD [2]: reduction in HTC cell viability
- reduction in cell number (Trypan blue cell count) [2]: ~70%
- shift of Trp fluorescence maximum on addition of synMDM2 (from-to) [4]: 356 nm to 328 nm
